Source: patent US5859257A, “Isoxazole compounds as cyclooxygenase inhibitors” (G. D. Searle & Co., priority 1996, dated 1999)

Columns and labels:
COX-2 = assay: Evaluation of COX-2 activity in vitro (PGE2 ELISA, recombinant enzyme); format: biochemical, human or murine; conditions: arachidonic acid 10 μM, pH 8.0, pre-incubation 10-20 minutes
Protocol: The COX-2 inhibition activity of the compounds of this invention illustrated in the Examples was determined by the following methods.
(§1) a. Preparation of recombinant COX baculoviruses
(§2) Recombinant COX-1 and COX-2 were prepared as scribed by Gierse et al, [J. Biochem., 305, 479-84 (1995)]. […] Recombinant baculoviruses were isolated by transfecting 4 μg of baculovirus transfer vector DNA into SF9 insect cells (2×10^8) along with 200 ng of linearized baculovirus plasmid DNA by the calcium phosphate method. See M. D. Summers and G. E. Smith, A Manual of Methods for Baculovirus Vectors and Insect Cell Culture Procedures, Texas Agric. Exp. Station Bull. 1555 (1987). Recombinant viruses were purified by three rounds of plaque purification and high titer (10^7 -10^8 pfu/mL) stocks of virus were prepared. For large scale production, SF9 insect cells were infected in 10 liter fermentors (0.5×10^6 /mL) with the recombinant baculovirus stock such that the multiplicity of infection was 0.1. After 72 hours the cells were centrifuged and the cell pellet homogenized in Tris/Sucrose (50 mM: 25%, pH 8.0) containing 1% 3-[(3-cholamidopropyl)dimethylammonio]-1-propanesulfonate (CHAPS). The nomogenate was centrifuged at 10,000×G for 30 minutes, and the resultant supernatant was stored at -80° C. before being assayed for COX activity.
(§3) COX activity was assayed as PGE2 formed/μg protein/time using an ELISA to detect the prostaglandin released. CHAPS-solubilized insect cell membranes containing the appropriate COX enzyme were incubated in a potassium phosphate buffer (50 mM, pH 8.0) containing epinephrine, phenol, and heme with the addition of arachidonic acid (10 μM). […] Any reaction between the arachidonic acid and the enzyme was stopped after ten minutes at 37° C./room temperature by transferring 40 μl of reaction mix into 160 μl ELISA buffer and 25 μM indomethacin. The PGE2 formed was measured by standard ELISA technology (Cayman Chemical).

COX-1 = assay: Evaluation of COX-1 activity in vitro (PGE2 ELISA, recombinant enzyme); format: biochemical, human or murine; conditions: arachidonic acid 10 μM, pH 8.0, pre-incubation 10-20 minutes
Protocol: as §1, §2, §3

rat paw edema = assay: Rat Carrageenan Foot Pad Edema Test; format: in vivo, Male Sprague-Dawley rats; conditions: @ 10 mg/kg body weight, oral, 3 h after carrageenan
Protocol: Rat Carrageenan Foot Pad Edema Test
Male Sprague-Dawley rats were selected in each group so that the average body weight was as close as possible. Rats were fasted with free access to water for over sixteen hours prior to the test. […] One hour later a subplantar injection of 0.1 mL of 1% solution of carrageenan/sterile 0.9% saline was administered and the volume of the injected foot was measured with a displacement plethysmometer connected to a pressure transducer with a digital indicator. Three hours after the injection of the carrageenan, the volume of the foot was again measured.

IC50 (COX-2)	IC50 (COX-1)	SMILES	RAT PAW EDEMA % Inhibition (rat paw edema)
0.3 µM	93 µM	Cc1onc(-c2cccc(Cl)c2)c1-c1ccc(S(N)(=O)=O)cc1 [Example 48, 4-[3-(3-Chlorophenyl)-5-methylisoxazol-4-yl]benzenesulfonamide]	–
< 0.1 µM	> 100 µM	COC(=O)c1ccc(OCc2onc(-c3ccccc3)c2-c2ccc(S(N)(=O)=O)cc2)cc1 [Example 50, Methyl 4-[[4-[4-(aminosulfonyl)phenyl]-3-phenylisoxazol-5-yl]methoxy]benzoate]	–
19 µM	> 100 µM	NS(=O)(=O)c1ccc(-c2c(-c3ccccc3)noc2COc2ccc(C(=O)O)cc2)cc1 [Example 51, 4-[[4-[4-(Aminosulfonyl)phenyl]-3-phenylisoxazol-5-yl]methoxy]benzoic acid]	–
0.2 µM	93 µM	NS(=O)(=O)c1ccc(-c2c(-c3ccccc3)noc2CC(=O)C(F)(F)F)cc1 [Example 52, 4-[3-Phenyl-5-(3,3,3-trifluoro-2-oxopropyl)isoxazol-4-yl]benzenesulfonamide]	–
1.8 µM	> 100 µM	CCc1noc(-c2ccccc2C)c1-c1ccc(S(N)(=O)=O)cc1 [Example 54, 4-[3-Ethyl-5-(2-methylphenyl)isoxazol-4-yl]benzenesulfonamide]	–
< 0.1 µM	> 100 µM	NS(=O)(=O)c1ccc(-c2c(-c3cccc(F)c3)noc2CC(=O)O)cc1 [Example 55, [4-(4-Aminosulfonylphenyl)-3-(3-fluorophenyl)isoxazol-5-yl]acetic acid]	–
< 0.1 µM	14 µM	CSc1onc(-c2ccccc2)c1-c1ccc(S(N)(=O)=O)cc1 [Example 58, 4-[5-Methylthio-3-phenylisoxazol-4-yl]benzenesulfonamide]	–
< 0.1 µM	> 100 µM	C[S+]([O-])c1onc(-c2ccccc2)c1-c1ccc(S(N)(=O)=O)cc1 (stereo not drawn) [Example 59, 4-[5-Methylsulfinyl-3-phenylisoxazol-4-yl]benzenesulfonamide]	–
0.2 µM	> 100 µM	NS(=O)(=O)c1ccc(-c2c(-c3ccccc3)noc2COCCO)cc1 [Example 60, 4-[5-(2-Hydroxyethyl)oxymethyl-3-phenylisoxazol-4-yl]benzenesulfonamide]	–
0.2 µM	> 100 µM	CS(=O)(=O)c1ccc(-c2c(-c3ccccc3)noc2CO)cc1 [Example 61, 5-Hydroxymethyl-4-(4-methylsulfonyl)phenyl-3-phenyl-isoxazole]	–
0.3 µM	36 µM	Cc1onc(-c2ccc(Cl)c(Cl)c2)c1-c1ccc(S(N)(=O)=O)cc1 [Example 67, 4-[5-Methyl-3-(3,4-dichlorophenyl)isoxazol-4-yl]benzenesulfonamide]	–
0.4 µM	> 100 µM	Cc1onc(-c2ccc(Cl)c(Cl)c2C(=O)O)c1-c1ccc(S(N)(=O)=O)cc1 [Example 68, 6-[4-[4-(aminosulfonyl)phenyl]-5-methylisoxazol-3-yl]-2,3-dichlorobenzoic acid]	–

The next lines start with the molecule.

SMILES	IC50 (COX-2)	IC50 (COX-1)	RAT PAW EDEMA % Inhibition (rat paw edema)
Cc1noc(-c2ccc(S(N)(=O)=O)cc2)c1-c1ccccc1 [Example 23, 4-[3-Methyl-4-phenylisoxazol-5-yl]benzenesulfonamide]	0.2 µM	56 µM	–
Cc1noc(-c2cccc(Cl)c2)c1-c1ccc(S(N)(=O)=O)cc1 [Example 24, 4-[5-(3-Chlorophenyl)-3-methylisoxazol-4-yl]benzenesulfonamide]	8.4 µM	> 100 µM	–
NS(=O)(=O)c1ccc(-c2c(CO)noc2-c2ccccc2)cc1 [Example 25, 4-[3-Hydroxymethyl-5-phenylisoxazol-4-yl]benzenesulfonamide]	79 µM	> 100 µM	–
NS(=O)(=O)c1ccc(-c2c(CC(=O)O)noc2-c2ccccc2)cc1 [Example 26, 4-(4-Aminosulfonylphenyl)-5-phenyl-isoxazole-3-acetic acid]	69.5 µM	> 100 µM	–
Cc1noc(-c2ccccc2)c1-c1ccc(S(C)(=O)=O)cc1 [Example 27, 3-Methyl-4-(4-methylsulfonylphenyl)-5-phenylisoxazole]	46 µM	> 100 µM	–
NS(=O)(=O)c1ccc(-c2c(CC(O)c3ccc(Cl)cc3)noc2-c2ccccc2)cc1 (stereo not drawn) [Example 28, 4-[3-[2-(4-Chlorophenyl)-2-hydroxyethyl]-5-phenylisoxazol-4-yl]benzenesulfonamide]	0.1 µM	> 100 µM	–
CCc1noc(-c2ccc(F)cc2)c1-c1ccc(S(N)(=O)=O)cc1 [Example 30, 4-[3-Ethyl-5-(4-fluorophenyl)isoxazol-4-yl]benzenesulfonamide]	< 0.1 µM	41 µM	–
CCc1noc(-c2cccc(F)c2)c1-c1ccc(S(N)(=O)=O)cc1 [Example 31, 4-[3-Ethyl-5-(3-fluorophenyl)isoxazol-4-yl]benzenesulfonamide]	1.3 µM	> 100 µM	–
CCc1noc(-c2ccccc2F)c1-c1ccc(S(N)(=O)=O)cc1 [Example 33, 4-[3-Ethyl-5-(2-fluorophenyl)isoxazol-4-yl]benzenesulfonamide]	< 0.1 µM	26 µM	–
NS(=O)(=O)c1ccc(-c2c(-c3ccccc3)noc2COCC(=O)O)cc1 [Example 35, [[4-[4-(Aminosulfonyl)phenyl]-3-phenylisoxazol-5-yl]-methoxy]acetic acid]	5.1 µM	> 100 µM	–
NS(=O)(=O)c1ccc(-c2c(-c3ccccc3)noc2CCCC(=O)O)cc1 [Example 36]	1.5 µM	> 100 µM	–
N#Cc1onc(-c2ccccc2)c1-c1ccc(S(N)(=O)=O)cc1 [Example 37, 4-[5-Cyano-3-phenylisoxazol-4-yl]benzenesulfonamide]	20 µM	> 100 µM	–
NS(=O)(=O)c1ccc(-c2c(-c3ccccc3)noc2Cl)cc1 [Example 38, 4-[5-Chloro-3-phenylisoxazol-4-yl]benzenesulfonamide]	< 0.1 µM	> 100 µM	–
NS(=O)(=O)c1ccc(-c2c(-c3ccccc3)noc2OS(=O)(=O)C(F)(F)F)cc1 [Example 39, 4-[5-Trifluoromethansulfonoxy-3-phenylisoxazol-4-yl]benzenesulfonamide]	0.9 µM	> 100 µM	–
CSc1ccc(-c2noc(C)c2-c2ccncc2)cc1 [Example 40, [5-Methyl-3-(4-methylthiophenyl)isoxazol-4-yl]-4-pyridine]	91 µM	2.3 µM	–
Cc1onc(-c2ccc(S(N)(=O)=O)cc2)c1-c1ccccc1 [Example 41, 4-[5-Methyl-4-phenylisoxazol-3-yl]benzenesulfonamide]	57.5 µM	81 µM	–
Cc1onc(-c2cc(F)cc(F)c2)c1-c1ccc(S(N)(=O)=O)cc1 [Example 42, 4-[3-(3,5-Difluorophenyl)-5-methylisoxazol-4-yl]benzenesulfonamide]	22.5 µM	> 100 µM	–
Cc1onc(-c2ccc(Br)cc2)c1-c1ccc(S(N)(=O)=O)cc1 [Example 43, 4-[3-(4-Bromophenyl)-5-methyl-isoxazol-4-yl]benzenesulfonamide]	0.6 µM	> 100 µM	–
COc1ccc(-c2noc(C(F)F)c2-c2ccc(S(N)(=O)=O)cc2)cc1F [Example 44, 4-[5-Difluoromethyl-3-(3-fluoro-4-methoxyphenyl)isoxazol-4-yl]benzenesulfonamide]	1.7 µM	> 100 µM	–
COc1ccc(-c2noc(C(F)F)c2-c2ccc(S(N)(=O)=O)cc2)cc1 [Example 45, 4-[5-Difluoromethyl-3-(4-methoxyphenyl)isoxazol-4-yl]benzenesulfonamide]	< 0.1 µM	16 µM	–
Cc1ccc(-c2noc(C(F)F)c2-c2ccc(S(N)(=O)=O)cc2)cc1 [Example 46, 4-[5-Difluoromethyl-3-(4-methylphenyl)isoxazol-4-yl]benzenesulfonamide]	0.5 µM	100 µM	–
CS(=O)(=O)c1ccc(-c2c(-c3ccccc3)noc2C(F)F)cc1 [Example 47, 5-Difluoromethyl-4-(4-methylsulfonylphenyl)-3-phenylisoxazole]	< 0.1 µM	> 100 µM	24%
